# Results taken from ChEMBL document CHEMBL1201862, “PubChem BioAssay data set” (2004).
# Active and inactive are the calls of the source.
# How the values were obtained:
# [1] = cells; type: functional, cell-based
# [2] = Trypanosoma cruzi growth suppression in host cells – NIH3T3 host cells, beta-gal luminescence, confirmation (AID 2044); type: functional, cell-based;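 note: intracellular parasites grown in NIH/3T3 mouse fibroblasts as host cells; luminescent beta-galactosidase reporter signal from transgenic T. cruzi replicating inside host cells; inhibitors lower the luminescence signal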
# [3] = cells; type: functional, cell-based; remark: listed apart in the source
# [4] = target: T1, Heat shock factor protein 1 (Mus musculus, UniProt P38532); experiment: enhancement of HSF1-driven luciferase signal – cell-based, NIH3T3, luminescence, dose retest, confirmation (AID 435004); type: functional;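 note: stress induced by proteasome inhibitor MG132 added 30 min after compound; luciferase reporter driven by HSF1 response element in NIH3T3 cells; actives raise luminescence as potentiators of the MG132 stress response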
# T1 sequence (P38532 whole entry): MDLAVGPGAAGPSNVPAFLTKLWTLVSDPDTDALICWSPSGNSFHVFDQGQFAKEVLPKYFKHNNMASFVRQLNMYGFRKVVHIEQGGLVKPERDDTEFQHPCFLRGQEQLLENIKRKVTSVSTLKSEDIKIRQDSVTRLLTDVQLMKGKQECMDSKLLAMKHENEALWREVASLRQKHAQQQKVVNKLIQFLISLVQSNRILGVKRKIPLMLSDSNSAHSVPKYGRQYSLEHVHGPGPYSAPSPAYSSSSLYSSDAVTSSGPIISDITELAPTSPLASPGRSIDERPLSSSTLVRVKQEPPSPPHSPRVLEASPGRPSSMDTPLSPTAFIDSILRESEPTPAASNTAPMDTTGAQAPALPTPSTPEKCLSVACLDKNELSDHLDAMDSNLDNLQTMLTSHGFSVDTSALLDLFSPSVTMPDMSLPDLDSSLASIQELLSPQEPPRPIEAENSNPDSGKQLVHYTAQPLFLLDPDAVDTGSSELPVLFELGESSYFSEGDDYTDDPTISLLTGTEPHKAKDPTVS
# [5] = target: T2, Microphthalmia-associated transcription factor (Homo sapiens, UniProt O75030); experiment: reducers of TRPM1 reporter luminescence, concentration series – cell-based, SK-MEL-5, cherry-picked, set 3, MITF inhibitor project, dose response (AID 493073); type: functional;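 note: SK-MEL-5 melanoma cells with luciferase driven by the MITF target TRPM1 promoter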
# T2 sequence (O75030 whole entry): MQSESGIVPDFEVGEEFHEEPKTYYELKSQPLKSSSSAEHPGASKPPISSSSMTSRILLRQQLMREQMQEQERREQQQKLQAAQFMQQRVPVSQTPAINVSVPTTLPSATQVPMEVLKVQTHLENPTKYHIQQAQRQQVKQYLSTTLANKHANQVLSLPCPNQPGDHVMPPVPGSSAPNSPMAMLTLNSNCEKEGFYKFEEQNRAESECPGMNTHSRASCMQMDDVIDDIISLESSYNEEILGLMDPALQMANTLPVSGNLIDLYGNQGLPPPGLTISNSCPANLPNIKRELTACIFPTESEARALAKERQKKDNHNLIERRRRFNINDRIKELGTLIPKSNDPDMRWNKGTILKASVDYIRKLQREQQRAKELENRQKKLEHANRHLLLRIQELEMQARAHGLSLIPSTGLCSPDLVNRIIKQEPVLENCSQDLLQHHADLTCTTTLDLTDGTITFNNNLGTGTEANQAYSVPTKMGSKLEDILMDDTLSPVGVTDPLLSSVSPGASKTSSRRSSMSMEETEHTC
# [6] = test system: INS1; experiment: INS-1E survival protection against cytokine death – cell-based, luminescence, retest, dose response (AID 449756); type: functional; details: Rattus norvegicus;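 note: cell death triggered by IL-1 beta plus TNF-alpha plus IFN-gamma mixture; protective hits raise ATP signal compared with cytokine alone wells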
# [7] = target: SWI/SNF-related matrix-associated actin-dependent regulator of chromatin subfamily A member 2 (Homo sapiens, UniProt P51531); experiment: Luminescence-based cell-based high throughput dose response assay to identify activators of the function of SWI/SNF related, matrix associated, actin dependent regulator of chromatin, subfamily a, member 2 (SMARCA2, BRM).; type: functional
# Sequence of SWI/SNF-related matrix-associated actin-dependent regulator of chromatin subfamily A member 2 (P51531 whole entry): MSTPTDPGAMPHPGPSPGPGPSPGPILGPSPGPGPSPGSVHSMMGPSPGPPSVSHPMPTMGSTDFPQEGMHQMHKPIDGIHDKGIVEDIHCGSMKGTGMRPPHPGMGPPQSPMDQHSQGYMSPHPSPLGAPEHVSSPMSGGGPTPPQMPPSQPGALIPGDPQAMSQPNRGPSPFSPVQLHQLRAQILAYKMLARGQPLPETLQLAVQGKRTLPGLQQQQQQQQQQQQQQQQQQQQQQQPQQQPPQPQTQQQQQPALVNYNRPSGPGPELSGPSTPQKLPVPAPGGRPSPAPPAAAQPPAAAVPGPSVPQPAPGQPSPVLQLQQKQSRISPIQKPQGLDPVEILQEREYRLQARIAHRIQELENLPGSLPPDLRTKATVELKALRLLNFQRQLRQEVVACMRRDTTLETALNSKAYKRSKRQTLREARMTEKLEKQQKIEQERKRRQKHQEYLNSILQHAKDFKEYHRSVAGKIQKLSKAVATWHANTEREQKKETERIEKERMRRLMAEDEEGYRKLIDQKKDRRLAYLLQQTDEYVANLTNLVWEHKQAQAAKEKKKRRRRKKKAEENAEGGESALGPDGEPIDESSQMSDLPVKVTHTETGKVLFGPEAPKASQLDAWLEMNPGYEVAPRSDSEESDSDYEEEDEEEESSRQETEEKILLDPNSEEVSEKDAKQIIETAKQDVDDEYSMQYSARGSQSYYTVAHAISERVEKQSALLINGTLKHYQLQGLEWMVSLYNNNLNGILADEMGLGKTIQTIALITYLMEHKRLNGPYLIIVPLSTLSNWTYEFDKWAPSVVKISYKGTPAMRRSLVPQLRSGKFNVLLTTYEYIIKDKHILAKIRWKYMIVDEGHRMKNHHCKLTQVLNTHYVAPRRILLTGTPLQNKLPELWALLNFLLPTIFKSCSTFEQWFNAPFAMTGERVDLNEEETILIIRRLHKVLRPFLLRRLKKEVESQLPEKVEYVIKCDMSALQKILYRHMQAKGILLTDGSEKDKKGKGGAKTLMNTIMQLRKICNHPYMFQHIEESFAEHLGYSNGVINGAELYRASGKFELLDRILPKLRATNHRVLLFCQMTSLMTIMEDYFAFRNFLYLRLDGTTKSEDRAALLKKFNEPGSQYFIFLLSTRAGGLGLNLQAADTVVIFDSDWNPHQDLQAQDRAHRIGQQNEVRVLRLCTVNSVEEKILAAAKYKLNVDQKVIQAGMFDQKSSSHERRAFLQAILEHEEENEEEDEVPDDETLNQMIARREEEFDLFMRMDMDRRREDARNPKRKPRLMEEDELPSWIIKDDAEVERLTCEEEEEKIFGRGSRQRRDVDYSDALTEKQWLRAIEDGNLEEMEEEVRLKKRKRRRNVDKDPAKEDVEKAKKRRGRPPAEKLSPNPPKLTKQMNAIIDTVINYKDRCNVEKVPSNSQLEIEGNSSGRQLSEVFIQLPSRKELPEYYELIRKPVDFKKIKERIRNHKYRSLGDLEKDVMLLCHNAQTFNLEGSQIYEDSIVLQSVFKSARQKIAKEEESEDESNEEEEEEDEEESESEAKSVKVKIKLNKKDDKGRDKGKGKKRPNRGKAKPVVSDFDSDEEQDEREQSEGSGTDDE
# [8] = Counterscreen for activators of the function of SWI/SNF related, matrix associated, actin dependent regulator of chromatin, subfamily a, member 2 (SMARCA2, BRM): Luminescence-based cell-based high throughput dose response assay to identify non-selective compounds using the VP16 reporter assay.; type: functional
# [9] = Luminescence-based cell-based high throughput dose response assay to identify activators of the DAF-12 from the parasite S. stercoralis (ssDAF-12).; type: functional
# [10] = target: T3, Estrogen receptor (Homo sapiens, UniProt P03372);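 note: potency for inhibiting coactivator peptide recruitment to the receptor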
# T3 sequence (P03372 whole entry): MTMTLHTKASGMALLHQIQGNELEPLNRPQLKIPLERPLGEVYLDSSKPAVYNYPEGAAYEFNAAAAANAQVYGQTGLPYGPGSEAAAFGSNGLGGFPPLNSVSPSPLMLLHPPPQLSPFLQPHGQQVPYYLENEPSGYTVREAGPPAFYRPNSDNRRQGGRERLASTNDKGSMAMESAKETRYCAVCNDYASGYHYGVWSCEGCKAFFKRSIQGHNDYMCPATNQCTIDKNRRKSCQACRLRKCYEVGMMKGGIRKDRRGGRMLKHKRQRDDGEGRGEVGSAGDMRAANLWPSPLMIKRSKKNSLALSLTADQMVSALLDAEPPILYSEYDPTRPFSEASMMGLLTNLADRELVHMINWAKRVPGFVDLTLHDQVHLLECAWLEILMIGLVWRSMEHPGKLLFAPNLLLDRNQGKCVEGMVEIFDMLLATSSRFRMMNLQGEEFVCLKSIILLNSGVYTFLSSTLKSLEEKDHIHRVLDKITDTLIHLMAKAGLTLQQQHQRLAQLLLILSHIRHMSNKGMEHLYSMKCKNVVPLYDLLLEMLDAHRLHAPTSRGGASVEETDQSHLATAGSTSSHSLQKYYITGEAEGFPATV
# [11] = target: Long-chain-fatty-acid--AMP ligase FadD28 (Mycobacterium tuberculosis, UniProt P9WQ59); experiment: Fluorescence polarization aasay to screen for inhibitors that compete for the binding of FadD28 to a bisubstrate Measured in Biochemical System Using Plate Reader - 2147-01_Inhibitor_Dose_CherryPick_Activity.; type: functional, Mycobacterium tuberculosis H37Rv
# Sequence of Long-chain-fatty-acid--AMP ligase FadD28 (P9WQ59 whole entry): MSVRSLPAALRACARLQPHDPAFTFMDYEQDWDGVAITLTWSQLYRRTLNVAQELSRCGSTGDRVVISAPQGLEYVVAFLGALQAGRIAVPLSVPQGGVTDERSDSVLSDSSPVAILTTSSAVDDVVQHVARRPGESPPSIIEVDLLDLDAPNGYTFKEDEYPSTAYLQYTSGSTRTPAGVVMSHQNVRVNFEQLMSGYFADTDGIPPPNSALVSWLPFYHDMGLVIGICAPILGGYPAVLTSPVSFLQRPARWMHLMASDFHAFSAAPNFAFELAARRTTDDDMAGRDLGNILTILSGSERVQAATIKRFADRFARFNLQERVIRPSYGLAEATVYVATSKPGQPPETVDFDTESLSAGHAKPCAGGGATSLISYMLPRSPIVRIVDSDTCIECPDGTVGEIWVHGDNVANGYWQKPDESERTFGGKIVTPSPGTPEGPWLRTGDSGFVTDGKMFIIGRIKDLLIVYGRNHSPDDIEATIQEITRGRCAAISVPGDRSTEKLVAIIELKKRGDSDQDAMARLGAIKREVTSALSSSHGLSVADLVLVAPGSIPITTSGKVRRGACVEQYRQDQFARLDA
# [12] = target: Galanin receptor type 3 (Homo sapiens, UniProt O60755); experiment: Fluorescence-based cell-based primary high throughput dose response assay to identify antagonists of the Galanin Receptor 3 (GalR3).; type: functional
# Sequence of Galanin receptor type 3 (O60755 whole entry): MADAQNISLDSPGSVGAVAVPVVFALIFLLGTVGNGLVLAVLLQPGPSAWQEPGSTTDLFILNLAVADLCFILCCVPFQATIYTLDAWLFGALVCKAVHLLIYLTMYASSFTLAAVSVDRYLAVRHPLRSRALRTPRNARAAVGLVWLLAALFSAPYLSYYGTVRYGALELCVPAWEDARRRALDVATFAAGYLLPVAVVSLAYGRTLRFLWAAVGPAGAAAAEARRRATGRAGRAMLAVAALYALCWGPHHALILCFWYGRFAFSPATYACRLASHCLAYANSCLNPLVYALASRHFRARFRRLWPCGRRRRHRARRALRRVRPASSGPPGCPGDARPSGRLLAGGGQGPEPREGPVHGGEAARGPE
# [13] = cells; type: functional, cell-based; details: HEK-CNG
# [14] = target: T4, COUP transcription factor 2 (Homo sapiens, UniProt P24468); experiment: Luminescence-based cell-based high throughput dose response assay to identify inhibitors of COUP-TFII (NR2F2).; type: functional;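 note: HEK293 cells transiently cotransfected with COUP-TFII expression vector and reporter; luciferase reporter luminescence driven by COUP-TFII from the pX2-168 reporter plasmid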
# T4 sequence (P24468 whole entry): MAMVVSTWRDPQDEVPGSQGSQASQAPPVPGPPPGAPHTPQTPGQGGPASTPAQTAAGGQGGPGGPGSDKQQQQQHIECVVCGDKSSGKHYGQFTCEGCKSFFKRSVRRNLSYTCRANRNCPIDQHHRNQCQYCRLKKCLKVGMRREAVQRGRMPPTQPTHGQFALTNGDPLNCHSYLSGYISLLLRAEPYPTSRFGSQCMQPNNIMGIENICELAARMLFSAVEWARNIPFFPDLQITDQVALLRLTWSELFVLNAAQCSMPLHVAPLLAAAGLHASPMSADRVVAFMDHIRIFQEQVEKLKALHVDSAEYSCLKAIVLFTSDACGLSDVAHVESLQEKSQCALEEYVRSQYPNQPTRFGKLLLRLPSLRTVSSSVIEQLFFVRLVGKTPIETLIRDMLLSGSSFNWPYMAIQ
# [15] = cytotoxicity in HEK293 background cells – cell-based, dry powder, set 2, counter-screen for EBV LMP1 inhibitor project, dose response (AID 624374); type: functional
# [16] = NIH3T3 cell viability loss – ATP luminescence, mouse fibroblasts, counter-screen, dose response (AID 2010); type: functional, cell-based;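 note: cells exposed to compound for about 90 hours before reading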
# [17] = viability loss in HeLa cells – cytotoxicity control for MgcRacGAP inhibitor project, dose response (AID 624300); type: functional
# [18] = target: T5, Rac GTPase-activating protein 1 (Homo sapiens, UniProt Q9H0H5); experiment: blockers of MgcRacGAP-driven Rac1 GTP hydrolysis – biochemical, ADP Hunter fluorescence, primary and confirmatory, confirmation (AID 624330); type: functional
# T5 sequence (Q9H0H5 whole entry): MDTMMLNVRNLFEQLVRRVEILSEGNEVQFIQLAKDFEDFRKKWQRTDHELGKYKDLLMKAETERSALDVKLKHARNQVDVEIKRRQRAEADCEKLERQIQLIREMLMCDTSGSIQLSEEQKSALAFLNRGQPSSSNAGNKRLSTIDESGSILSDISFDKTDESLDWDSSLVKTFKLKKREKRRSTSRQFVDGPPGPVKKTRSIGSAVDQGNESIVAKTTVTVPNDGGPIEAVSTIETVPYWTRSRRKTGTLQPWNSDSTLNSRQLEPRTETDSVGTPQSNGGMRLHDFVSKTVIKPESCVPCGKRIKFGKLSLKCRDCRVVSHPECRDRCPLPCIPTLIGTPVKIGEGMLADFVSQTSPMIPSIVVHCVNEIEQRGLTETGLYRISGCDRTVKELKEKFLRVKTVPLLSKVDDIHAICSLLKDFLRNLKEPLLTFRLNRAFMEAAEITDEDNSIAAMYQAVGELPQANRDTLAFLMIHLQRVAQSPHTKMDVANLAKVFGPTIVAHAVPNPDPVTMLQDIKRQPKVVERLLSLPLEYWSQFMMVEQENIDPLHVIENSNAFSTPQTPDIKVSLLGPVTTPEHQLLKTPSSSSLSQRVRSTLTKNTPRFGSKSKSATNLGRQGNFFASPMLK
# [19] = target: T6, DNA repair protein RAD52 homolog (Homo sapiens, UniProt P43351); type: functional, biochemical
# T6 sequence (P43351 whole entry): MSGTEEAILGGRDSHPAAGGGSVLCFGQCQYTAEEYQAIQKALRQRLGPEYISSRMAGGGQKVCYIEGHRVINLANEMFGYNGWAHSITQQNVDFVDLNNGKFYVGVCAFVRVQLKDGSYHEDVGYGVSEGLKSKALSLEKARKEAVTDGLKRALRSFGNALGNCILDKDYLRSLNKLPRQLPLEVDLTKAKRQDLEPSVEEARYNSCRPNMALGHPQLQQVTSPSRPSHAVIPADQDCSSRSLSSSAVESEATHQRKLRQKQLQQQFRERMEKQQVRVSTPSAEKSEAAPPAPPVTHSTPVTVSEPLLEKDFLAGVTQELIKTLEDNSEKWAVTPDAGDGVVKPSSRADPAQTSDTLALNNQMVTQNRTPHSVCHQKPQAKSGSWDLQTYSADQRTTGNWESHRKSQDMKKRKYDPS
structure (smiles),measurement,setting,value
CCN(CC)CCn1nc2c3c(cccc3c1=O)-c1ccccc1-2,EC50,[1],41 µM (active)
same,EC50,[2],1.46 µM (active)
same,EC50,[3],> 350 µM (not active)
same,EC50,[4],> 260 µM (inactive)
same,AC50,[5],5.92 µM (active)
same,AC50,[6],2.4 µM (active)
same,EC50,[7],> 91.2 µM (inactive)
same,EC50,[8],> 91.2 µM (inactive)
same,IC50,[9],> 67.5 µM (inactive)
CCc1cccc2c(C(=O)Cn3nnc(-c4ccc(OC)c(OC)c4)n3)c[nH]c12,IC50,[10],10.3 µM (active)
same,AC50,[11],40.8 µM (active)
Nc1nc2ccccc2cc1C(=O)NCc1ccc(-c2ccccc2)cc1,IC50,[12],0.392 µM (active)
same,EC50,[13],> 29.9 µM (inactive)
same,IC50,[14],2.01 µM (active)
Cc1noc(C)c1S(=O)(=O)Nc1ccc2c(c1)C(=O)N([C@H](C)CO)C[C@H](C)[C@H](CN(C)Cc1ccc(C(F)(F)F)cc1)OCCCC[C@H](C)O2,AbsAC35,[15],76.4 µM
COc1ccccc1CNC(=O)C[C@H]1C[C@@H]2c3cc(NC(=O)CN(C)C)ccc3O[C@@H]2[C@@H](CO)O1,AbsAC35,[15],106.52 µM
COc1ccc(/C=N/Nc2cc(C)nc3c(C)cccc23)cc1,EC50,[2],1.14 µM (active)
same,EC50,[16],> 60 µM (not active)
same,CC50,[17],31.6 µM (active)
same,IC50,[18],68.9 µM (active)
same,EC50,[7],> 91.2 µM (inactive)
same,EC50,[8],> 91.2 µM (inactive)
same,AC50,[19],2.28 µM (active)
